# Results published in US20050009913A1, “Method for inactivating bacteria and leukocytes in thrombocyte suspensions” (priority 2001, published 2005).
# Legend:
# S. epidermidis = assay: Photoinactivation of S. epidermidis in TC (colony forming assay); type: cell-based, Staphylococcus epidermidis; settings: for Bacteria titre after light, Exp. 1 / Bacteria titre after light, Exp. 2: compound 2 mM, light energy input 3000 kJ/m^2
# Method: (§1) In the experiments described, TC was used which had been obtained from the buffy coats of donor blood and which was suspended in plasma or in a conventional storage medium (T-sol) with approximately 40% plasma. A system fitted with xenon lamps and in which the emitted UV fraction was masked out by a window glass filter was used for the exposure. Staphylococcus (S.) epidermidis was generally used as the test bacterium. Bacteria titres were determined using a colony forming assay. These are given in “colony forming units per ml” (CFU/ml).
# (§2) In the experiments on the inactivation of bacteria TC aliquots of respectively 60 ml located in PVC storage bags having a nominal volume of 500 ml were treated. After adding delta-Ala or the methyl ester of delta-Ala (see Table 1) the samples were pre-incubated for one hour at room temperature in the thrombocyte rotator and then exposed to light. In the experiments on the inactivation of leukocytes the samples were pre-incubated overnight (i.e., for approximately 16-20 h) or for 4 hours. The light energy deposited in the samples is given in kilojoules per m^2 (kJ/m^2). 3000 kJ/m^2 corresponds to an exposure time of about one hour. Each experiment was carried out at least twice.
# In order to determine the quantity of light sufficient to largely inactivate S. epidermidis, i.e., by at least 2 log10 grades, the following experiments were carried out: 1000 to 1500 CFU/ml S. epidermidis was added to TC, either in storage medium having a plasma content of approximately 40% or in plasma; delta-Ala was then added in a concentration of 0.25 mM (plasma-reduced TC) or 1 mM (TC with approximately 100% plasma). After pre-incubating for one hour at room temperature, the samples were exposed to different amounts of light. The results are plotted in FIGS. 3 and 4.
# Pseudomonas aeroginosa = assay: Photoinactivation of Pseudomonas aeroginosa in TC (colony forming assay); type: cell-based; settings: 1 mM delta-Ala
# Method: as §1, §2
# Staphylococcus aureus = assay: Photoinactivation of Staphylococcus aureus in TC (colony forming assay); type: cell-based; settings: 1 mM delta-Ala
# Method: as §1, §2
# Yersinia enterocolitica = assay: Photoinactivation of Yersinia enterocolitica in TC (colony forming assay); type: cell-based; settings: 1 mM delta-Ala
# Method: as §1, §2
# Escherichia coli = assay: Photoinactivation of Escherichia coli in TC (colony forming assay); type: cell-based; settings: 1 mM delta-Ala
# Method: as §1, §2
# Serratia marescens = assay: Photoinactivation of Serratia marescens in TC (colony forming assay); type: cell-based; settings: 1 mM delta-Ala
# Method: as §1, §2
# Enterobacter cloacae = assay: Photoinactivation of Enterobacter cloacae in TC (colony forming assay); type: cell-based; settings: 1 mM delta-Ala
# Method: as §1, §2
# T lymphocytes = assay: Photoinactivation of T lymphocytes in TC (Con A proliferation assay, BRDU incorporation); type: cell-based; settings: pre-incubation approx. 16 h, light energy input 2000 kJ/m^2 (FIG. 5)
# Method: as §2
# thrombocytes = assay: Functional in-vitro properties of TC after delta-Ala and exposure to light (hypotonic shock reaction, collagen-induced aggregation); type: cell-based; settings: after treatment with delta-Ala and subsequent exposure to light
# [1] = after exposure, 1500 kJ/m^2, average of two experiments
# [2] = before exposure, average of two experiments
smiles,measurement,setting,value
"NCC(=O)CCC(=O)O [Delta-Ala, 6-aminolevulinic acid]","Bacteria titre after light, Exp. 1",S. epidermidis; TC in 100% plasma,5 CFU/ml
same,"Bacteria titre after light, Exp. 2",S. epidermidis; TC in 100% plasma,3.5 CFU/ml
same,Bacteria titre after exposure,"S. epidermidis; TC, 1 mM delta-Ala, after exposure, 1500 kJ/m^2, average of two experiments",2 CFU/ml
same,Bacteria titre before exposure,"S. epidermidis; TC, 1 mM delta-Ala, before exposure, average of two experiments",2440 CFU/ml
same,delta-Ala concentration sufficient for inactivation,"S. epidermidis; plasma-reduced TC, light energy input 3000 kJ/m^2 (FIG. 2)",≤ 0.1 mM
same,Light energy to be irradiated for extensive inactivation of the bacteria,"S. epidermidis; thrombocytes suspended in 100% plasma, 1 mM delta-Ala, pre-incubation one hour (FIG. 4)",approximately 3000 kJ/m^2
same,Bacteria titre after exposure,Pseudomonas aeroginosa; [1],1 CFU/ml
same,Bacteria titre before exposure,Pseudomonas aeroginosa; [2],700 CFU/ml
same,Reduction of infectious titre,Staphylococcus aureus; 1500 kJ/m^2,~97%
same,Bacteria titre after exposure,Staphylococcus aureus; [1],51 CFU/ml
same,Bacteria titre before exposure,Staphylococcus aureus; [2],2000 CFU/ml
same,Bacteria titre after exposure,Yersinia enterocolitica; [1],1 CFU/ml
same,Bacteria titre before exposure,Yersinia enterocolitica; [2],4650 CFU/ml
same,Bacteria titre after exposure,Escherichia coli; [1],3 CFU/ml
same,Bacteria titre before exposure,Escherichia coli; [2],11300 CFU/ml
same,Bacteria titre after exposure,Serratia marescens; [1],1 CFU/ml
same,Bacteria titre before exposure,Serratia marescens; [2],2500 CFU/ml
same,Reduction of infectious titre,Enterobacter cloacae; 1500 kJ/m^2,approximately 95%
same,Bacteria titre after exposure,Enterobacter cloacae; [1],1280 CFU/ml
same,Bacteria titre before exposure,Enterobacter cloacae; [2],24500 CFU/ml
same,Required concentration of delta-Ala for photoinactivation of T lymphocytes,T lymphocytes,higher than 1 mM
same,Functional in-vitro properties of TC and other thrombocyte parameters after treatment,thrombocytes,had not changed
"COC(=O)CCC(=O)CN [Methyl-Ala, delta-Ala methyl ester]",Efficacy of inactivation of S. epidermidis compared with delta-Ala,"S. epidermidis; TC in 100% plasma, 2 mM, 3000 kJ/m^2 (Table 1)",the same efficacy
same,"Bacteria titre after light, Exp. 1",S. epidermidis; TC in 100% plasma,1.5 CFU/ml
same,"Bacteria titre after light, Exp. 2",S. epidermidis; TC in 100% plasma,4 CFU/ml
